Assay [1] relates to Beet Armyworm (BAW) (Spodoptera exigua). The experiment in a line: Bioassays on BAW, 128-well diet tray assay. In kind it is in vivo. To be noted: Spodoptera exigua, 168 h; 50 μg/cm^2 on artificial diet, second instar larvae, five to seven days, 25° C.; read-out: BAW Rating (percent mortality). As to the method: (§1) Certain molecules disclosed in this document were tested against BAW, CEW and CL using procedures described in the following examples. In the reporting of the results, the “BAW & CEW & CL Rating Table” was used (See Table Section).
Bioassays on BAW (Spodoptera exigua)
Bioassays on BAW were conducted using a 128-well diet tray assay. One to five second instar BAW larvae were placed in each well (3 mL) of the diet tray that had been previously filled with 1 mL of artificial diet to which 50 μg/cm^2 of the test compound (dissolved in 50 μL of 90:10 acetone-water mixture) had been applied (to each of eight wells) and then allowed to dry. Trays were covered with a clear self-adhesive cover, and held at 25° C., 14:10 light-dark for five to seven days. Percent mortality was recorded for the larvae in each well; activity in the eight wells was then averaged. The results are indicated in the tables entitled “Table 3: Assay Results Part 1” and “Table 4: Assay Results Part 2” (See Table Section).

In assay [2] the test system is Cabbage Looper (CL) (Trichoplusia ni). The experiment in a line: Bioassays on CL, 128-well diet tray assay. To be noted: 168 h, 50 μg/cm^2 on artificial diet, second instar larvae, five to seven days, 25° C., read-out: CL Rating (percent mortality). Type of assay: in vivo. As to the method: as §1
Bioassays on CL (Trichoplusia ni)
Bioassays on CL were conducted using a 128-well diet tray assay. One to five second instar CL larvae were placed in each well (3 mL) of the diet tray that had been previously filled with 1 mL of artificial diet to which 50 μg/cm^2 of the test compound (dissolved in 50 μL of 90:10 acetone-water mixture) had been applied (to each of eight wells) and then allowed to dry. Trays were covered with a clear self-adhesive cover, and held at 25° C., 14:10 light-dark for five to seven days. Percent mortality was recorded for the larvae in each well; activity in the eight wells was then averaged. The results are indicated in the table entitled “Table 4: Assay Results Part 2” (See Table Section).

In the case of `O=C(NC1(C(=O)NCC(F)(F)F)CC1)c1ccc(/C=C/[C@H](c2cc(Cl)c(Cl)c(Cl)c2)C(F)(F)F)cc1C(F)(F)F` (single isomer, unassigned) [Compound F8A], the mortality at 50 µg/cm2 in assay [1] and in assay [2] was 50 to 100% in each case.
On to `O=C(NC1(C(=O)NCC(F)(F)F)CC1)c1ccc(/C=C/C(c2cc(F)cc(Br)c2)C(F)(F)F)cc1C(F)(F)F` (stereo not shown) [Compound P200], for which the mortality at 50 µg/cm2 in assay [1] and in assay [2] was 50 to 100% throughout.
In the case of `Cc1cc(/C=C/C(c2cc(Cl)c(Cl)c(Cl)c2)C(F)(F)F)ccc1C(=O)NC1(C(=O)NCC(F)(F)F)CC1` (stereo not shown) [Compound F2], the mortality at 50 µg/cm2 in assay [1] and in assay [2] was 50 to 100% throughout.
For the molecule `O=C(NC1(C(=O)Nc2ccc(C(F)(F)F)cc2)CC1)c1ccc(/C=C/C(c2cc(Cl)c(Cl)c(Cl)c2)C(F)(F)F)cc1Br` (stereo not shown) [FA36], the mortality at 50 µg/cm2 in assay [1] and in assay [2] was 0% throughout.
On to `O=C(NC1(C(=O)NCC(F)(F)F)CCC1)c1ccc(/C=C/C(c2cc(Cl)c(Cl)c(Cl)c2)C(F)(F)F)cc1Cl` (stereo not shown) [Compound F4], for which the mortality at 50 µg/cm2 in assay [1] and in assay [2] was 50 to 100% throughout.
For `O=C(NC1(C(=O)NCCC(F)(F)F)CC1)c1ccc(/C=C/C(c2cc(Br)cc(Br)c2)C(F)(F)F)cc1Br` (stereo not shown) [Compound P1213], the mortality at 50 µg/cm2 in assay [1] and in assay [2] was 50 to 100% throughout.
Take `Cc1cc(C(/C=C/c2ccc(C(=O)NC3(C(=O)NCC(F)(F)F)CC3)c(C(F)(F)F)c2)C(F)(F)F)cc(Cl)c1Cl` (stereo not shown) [FA3]: the mortality at 50 µg/cm2 in assay [1] and in assay [2] was 50 to 100% in each case.
As to `O=C(NC1(C(=O)NCc2ccc(C(F)(F)F)cc2)CC1)c1ccc(/C=C/C(c2cc(Cl)c(Cl)c(Cl)c2)C(F)(F)F)cc1Br` (stereo not shown) [FA34], the mortality at 50 µg/cm2 in assay [1] and in assay [2] was 50 to 100% each time.
Turning to `Cc1cc(C(/C=C/c2ccc(C(=O)NC3(C(=O)NCC(F)(F)F)CC3)c(C(F)(F)F)c2)C(F)(F)F)cc(C)c1Cl` (stereo not shown) [FA14], the mortality at 50 µg/cm2 in assay [1] and in assay [2] was 50 to 100% throughout.
With `O=C(NC1(C(=S)NCC(F)(F)F)CC1)c1ccc(/C=C/C(c2cc(Cl)c(Cl)c(Cl)c2)C(F)(F)F)cc1C(F)(F)F` (stereo not shown) [Compound F6, (E)-4-(4,4,4-Trifluoro-3-(3,4,5-trichlorophenyl)but-1-enyl)-N-(1-(2,2,2-trifluoroethylcarbamothioyl)cyclopropyl)-2-(trifluoromethyl)benzamide], the mortality at 50 µg/cm2 in assay [1] and in assay [2] was 50 to 100% each time.
For `O=C(NC1(C(=O)NC2CCSC2)CC1)c1ccc(/C=C/C(c2cc(Cl)c(Cl)c(Cl)c2)C(F)(F)F)cc1Br` (stereo not shown) [FA19], the mortality at 50 µg/cm2 in assay [1] and in assay [2] was 50 to 100% each time.
As for `COCCCNC(=O)C1(NC(=O)c2ccc(/C=C/C(c3cc(Cl)c(Cl)c(Cl)c3)C(F)(F)F)cc2Br)CC1` (stereo not shown) [FA18], the mortality at 50 µg/cm2 in assay [1] and in assay [2] was 50 to 100% each time.
For the molecule `Cc1cc(C(/C=C/c2ccc(C(=O)NC3(C(=O)NCC(F)(F)F)CC3)c(Br)c2)C(F)(F)F)cc(C)c1F` (stereo not shown) [Compound P333], the mortality at 50 µg/cm2 in assay [1] and in assay [2] was 50 to 100% throughout.
For the molecule `COc1ccccc1CN(C)C(=O)C1(NC(=O)c2ccc(/C=C/C(c3cc(Cl)c(Cl)c(Cl)c3)C(F)(F)F)cc2Br)CC1` (stereo not shown) [FA46], the mortality at 50 µg/cm2 in assay [1] lay in the range of 0 to 50%; in assay [2], 50 to 100%.
Taken in the same sequence, the figures for `COc1ccc(CNC(=O)C2(NC(=O)c3ccc(/C=C/C(c4cc(Cl)c(Cl)c(Cl)c4)C(F)(F)F)cc3Br)CC2)cc1` (stereo not shown) [FA33] were 50 to 100% and 50 to 100%.
Taken in the same sequence, the figures for `O=C(NC1(C(=O)NCC(F)(F)F)CC1)c1ccc(/C=C/C(c2cc(Cl)cc(Cl)c2)C(F)(F)C(F)(F)F)cc1C(F)(F)F` (stereo not shown) [Compound P1045] were 50 to 100% and 50 to 100%.
On to `N#Cc1cc(C(/C=C/c2ccc(C(=O)NC3(C(=O)NCC(F)(F)F)CC3)c(Br)c2)C(F)(F)F)ccc1F` (stereo not shown) [Compound P513], for which the mortality at 50 µg/cm2 in assay [1] and in assay [2] was 50 to 100% each time.

Usually mortality stands for the percentage killed.

For the origin of these results see patent US9212164B2, “Pesticidal compositions and processes related thereto” (Dow AgroSciences LLC, priority 2012, dated 2015).
